From ChEMBL document CHEMBL3045044, “Further derivatives of 4-benzoyl-1,5-diphenyl-1H-pyrazole-3-carboxylic acid and their antibacterial activities” (2007)
Values after ≈ are worked out from the molar mass of the structure shown. Active and inactive are the calls of the source. No cut-off for these calls is given here.

Tests used:
Format in all cases: functional
[1] = tested on: Pseudomonas aeruginosa; experiment: Antibacterial activity against Pseudomonas aeruginosa ATCC 9027 after overnight incubation by microdilution method
[2] = tested on: Streptococcus pyogenes; experiment: Antibacterial activity against Streptococcus pyogenes ATCC 176 after overnight incubation by microdilution method
[3] = tested on: Salmonella enteritidis; experiment: Antibacterial activity against Salmonella enterica subsp. enterica serovar Enteritidis ATCC 1376 after overnight incubation by microdilution method
[4] = tested on: Proteus vulgaris; experiment: Antibacterial activity against Proteus vulgaris Kukem 1329 after overnight incubation by microdilution method
[5] = tested on: Staphylococcus aureus; experiment: Antibacterial activity against Staphylococcus aureus ATCC 29213 after overnight incubation by microdilution method
[6] = tested on: Klebsiella pneumoniae; experiment: Antibacterial activity against Klebsiella pneumoniae A137 after overnight incubation by microdilution method
[7] = tested on: Xanthomonas campestris; experiment: Antibacterial activity against Xanthomonas campestris A235 after overnight incubation by microdilution method
[8] = tested on: Enterococcus faecalis; experiment: Antibacterial activity against Enterococcus faecalis ATCC 29122 after overnight incubation by microdilution method
[9] = tested on: Bacillus subtilis; experiment: Antibacterial activity against Bacillus subtilis ATCC 6633 after overnight incubation by microdilution method
[10] = tested on: Escherichia coli; experiment: Antibacterial activity against Escherichia coli B3704 after overnight incubation by microdilution method

SMILES | MIC [1] | MIC [2] | MIC [3] | MIC [4] | MIC [5] | MIC [6] | MIC [7] | MIC [8] | MIC [9] | MIC [10]
O=c1onc(-c2ccccc2)c2c(-c3ccccc3)n(-c3ccccc3)nc12 | inactive | 512 µg/mL (≈ 1400 µM) | inactive | 512 µg/mL (≈ 1400 µM) | inactive | inactive | 256 µg/mL (≈ 701 µM) | inactive | inactive | 512 µg/mL (≈ 1400 µM)
NS(=O)(=O)NC(=O)c1nn(-c2ccccc2)c(-c2ccccc2)c1C(=O)c1ccccc1 | 32 µg/mL (≈ 71.7 µM) | 32 µg/mL (≈ 71.7 µM) | 32 µg/mL (≈ 71.7 µM) | 32 µg/mL (≈ 71.7 µM) | 32 µg/mL (≈ 71.7 µM) | 32 µg/mL (≈ 71.7 µM) | 32 µg/mL (≈ 71.7 µM) | inactive | inactive | 32 µg/mL (≈ 71.7 µM)
O=C(c1ccccc1)c1nn(-c2ccccc2)c(-c2ccccc2)c1C(=O)c1ccccc1 | inactive | inactive | inactive | 512 µg/mL (≈ 1190 µM) | inactive | inactive | 512 µg/mL (≈ 1190 µM) | inactive | inactive | inactive
Nc1nnc(-c2ccccc2)c2c(-c3ccccc3)n(-c3ccccc3)nc12 | 32 µg/mL (≈ 88.1 µM) | inactive | inactive | 512 µg/mL (≈ 1410 µM) | inactive | inactive | 512 µg/mL (≈ 1410 µM) | inactive | inactive | 512 µg/mL (≈ 1410 µM)
O=C(N[C@H](CO)[C@H](O)c1ccc([N+](=O)[O-])cc1)C(Cl)Cl [CHLORAMPHENICOL] | 24 µg/mL (≈ 74.3 µM) | 12 µg/mL (≈ 37.1 µM) | 24 µg/mL (≈ 74.3 µM) | 24 µg/mL (≈ 74.3 µM) | 6 µg/mL (≈ 18.6 µM) | 12 µg/mL (≈ 37.1 µM) | 12 µg/mL (≈ 37.1 µM) | 12 µg/mL (≈ 37.1 µM) | 24 µg/mL (≈ 74.3 µM) | 6 µg/mL (≈ 18.6 µM)
N#Cc1nn(-c2ccccc2)c(-c2ccccc2)c1C(=O)c1ccccc1 | inactive | inactive | inactive | 512 µg/mL (≈ 1470 µM) | inactive | inactive | 512 µg/mL (≈ 1470 µM) | inactive | inactive | 512 µg/mL (≈ 1470 µM)
